Test results as given in patent US20060148023A1, “Affinity labeling of serine proteases for simultaneous detection of multiple serine protease activity levels” (priority 2001, published 2006).

What was measured:
Assay type in all cases: cell-based
Conditions in all cases: for FLCK RFU: green, ex 488 nm/em 535 nm; for FLCK RFU / SFCK RFU: average of 4 wells; for SFCK RFU: red, ex 590 nm/em 620 nm
[1] = system: Jurkat cells; assay: FLISP staining of Jurkat cells, fluorescence plate reader
Method: (§1) Preparation of reagents: Fluorescent inhibitors of serine proteases (FLISP) reagents, 5(6)-Carboxyfluoresceinyl-L-phenylalanylchloromethyl ketone (FFCK), 5(6)-carboxyfluoresceinyl-L-leucylchloromethyl ketone (FLCK), Sulforhodaminyl 101 -L-phenylalanylchloromethyl ketone (SFCK) and Sulforhodaminyl 101 -L-leucylchloromethyl ketone (SLCK) are dissolved initially in dimethyl sulfoxide (DMSO; Sigma) to yield a 10 mM concentration. Aliquots are made from this stock solution and stored frozen at −20° C. protected from light. The reagent stock of the FLCK is then diluted directly into the cell culture media to give a 1× working reagent concentration of 20 μM and the reagent stock of the SFCK is then diluted directly into the cell culture media to give a 1× working reagent concentration of 5 μM. Dilution of the reagent into aqueous (cell culture) media is done just prior to cell exposure to preserve the labile chloromethyl ketone reactivity of FLISP reagent.
(§2) Cells: Jurkat, HL-60 and U937 cells were obtained from American Type Culture Collection (ATCC; Rockville, Md.). They were cultured in 25 mL FALCON flasks (Becton Dickinson Co., Franklin Lakes, N.J.) using RPMI 1640 supplemented with 10% fetal calf serum, 100 units/mL penicillin, […] and 2 mM L-glutamine (all from Gibco/BRL Life Technologies, Inc., Grand Island, N.Y.) in a humidified incubator set to maintain 37.5° C. and 5 % CO2. At the onset of experiments, the cells were at an exponential and asynchronous growth phase with fewer than 5×10^5 cells per/mL in culture. To induce apoptosis the cells were treated with 0.15 μM DNA topoisomerase I inhibitor camptothecin (CPT; Sigma Chemical Co., St. Louis, Mo.) for 3 hours.
(§3) Cell staining and evaluation by fluorescence plate reader: The Jurkat, HL-60 and U937 cells from the untreated or CPT treated cultures were centrifuged (200 g, 5 min) and resuspended in PBS at approximately 10^6 cells per 5 ml volume. FLISP staining solutions were prepared by diluting 10 μL of a green 10 mM FLISP reagent stock solution (FLCK) and 2.5 μL of a red 10 mM FLISP reagent stock solution (SFCK) into 5 mL of culture medium yielding a final green FLISP concentration of 20 μM and a final red FLISP concentration of 5 μM. When detecting multiple serine proteases use different CMK labeled peptides i.e. FLCK and SFCK or FFCK and SLCK. The FLISP staining solution was removed by washing the cells in wash buffer (0.5% BSA in PBS +0.05% NaN3, pH 7.4) and centrifuging for 5 minutes at 200 g. The washing step was repeated two more times with fresh wash buffer. After the final wash the cells were resuspended in 5 mL wash buffer and 100 μL per were added to a 96 well black microtiter plate (4 wells were used for each sample). Green and red fluorescence were measured simultaneously on a Spectra MAX Gemini XS fluorescence plate reader (Molecular Devices). Green cell fluorescence (FLCK) was then measured using a 488 nm excitation, 535 nm emission with a 515 nm cutoff. Red cell fluorescence (SFCK) was then measured using a 590 nm excitation, 620 emission with a 610 nm cutoff.

[2] = system: HL-60 cells; assay: FLISP staining of HL-60 cells, fluorescence plate reader
Method: as §1, §2, §3

[3] = system: U937 cells; assay: FLISP staining of U937 cells, fluorescence plate reader
Method: as §1, §2, §3

With “5(6)-carboxyfluoresceinyl-L-leucylchloromethyl ketone [FLCK]” the “FLCK RFU” value ([1]; Jurkat I (induced, apoptotic; 0.15 μM CPT 3 h), 20 μM) was 13.291 RFU, the “FLCK RFU” value ([1]; Jurkat NI (non-induced), 20 μM) was 3.702 RFU and the “FLCK Ratio of I/NI” value ([1]; Jurkat, induced/non-induced, 20 μM) was 3.59. For the same molecule, the “FLCK Ratio of I/NI” value ([2]; HL-60, induced/non-induced, 20 μM) was 1.59, the “FLCK RFU” value ([2]; HL-60 I (induced, apoptotic; 0.15 μM CPT 3 h), 20 μM) was 7.552 RFU and the “FLCK RFU” value ([2]; HL-60 NI (non-induced), 20 μM) was 4.748 RFU. For the same molecule, the “FLCK Ratio of I/NI” value ([3]; U937, induced/non-induced, 20 μM) was 3.70, the “FLCK RFU” value ([3]; U937 I (induced, apoptotic; 0.15 μM CPT 3 h), 20 μM) was 8.208 RFU and the “FLCK RFU” value ([3]; U937 NI (non-induced), 20 μM) was 2.218 RFU.
With `CCN(CC)c1ccc2c(-c3ccc(S(=O)(=O)NC(Cc4ccccc4)C(=O)CCl)cc3S(=O)(=O)[O-])c3ccc(=[N+](CC)CC)cc-3oc2c1` [SFCK, Sulforhodaminyl-L-phenylalanylchloromethyl ketone] the “SFCK RFU” value ([1]; Jurkat I (induced, apoptotic; 0.15 μM CPT 3 h), 5 μM) was 74.348 RFU, the “SFCK RFU” value ([1]; Jurkat NI (non-induced), 5 μM) was 30.596 RFU and the “SFCK Ratio of I/NI” value ([1]; Jurkat, induced/non-induced, 5 μM) was 2.43. The “SFCK Ratio of I/NI” value ([2]; HL-60, induced/non-induced, 5 μM) was 1.28, the “SFCK RFU” value ([2]; HL-60 I (induced, apoptotic; 0.15 μM CPT 3 h), 5 μM) was 49.045 RFU and the “SFCK RFU” value ([2]; HL-60 NI (non-induced), 5 μM) was 38.301 RFU. The “SFCK Ratio of I/NI” value ([3]; U937, induced/non-induced, 5 μM) was 1.82, the “SFCK RFU” value ([3]; U937 I (induced, apoptotic; 0.15 μM CPT 3 h), 5 μM) was 44.245 RFU and the “SFCK RFU” value ([3]; U937 NI (non-induced), 5 μM) was 24.341 RFU.
